The subject of data set [1] is CCRF-CEM. The data set can be described thus: Compound was tested for inhibitory activity against HIV-1 replication in CEM/TK- cells. It is filed as functional, cell-based. The settings on record: Homo sapiens.
Data set [2] relates to CEM-SS. The data set can be described thus: Compound was tested for cytotoxicity against HIV-1 in CEM-SS cells. It is filed as functional. Conditions: Homo sapiens.
Data set [3] is described as follows: Half-life in RPMI 1640 containing 10% heat inactivated fetal calf serum culture medium at step 1. The data set is classed as ADME, Bos taurus. Conditions: cattle.
Data set [4] has as its system CCRF-CEM. The experiment in a line: Compound was tested for cytotoxicity against HIV-1 in CEM/TK- cells. The data set is classed as functional. The settings on record: Homo sapiens.
Data set [5] can be described thus: Half-life in total CEM cell extract at Step 1. It is filed as ADME, CCRF-CEM. Conditions: human.
The subject of data set [6] is CEM-SS. The experiment in a line: Compound was tested for inhibitory activity against HIV-1 replication in CEM-SS cells. It is filed as functional, cell-based. Conditions: Homo sapiens.

Each structure is given as a SMILES string.

This is an account of results in ChEMBL document CHEMBL1130649, “Rational design of a new series of mixed anti-HIV pronucleotides” (Bioorg Med Chem Lett, 1998).

In the case of `Cc1cn([C@H]2C[C@H](N=[N+]=[N-])[C@@H](COP(=O)(OCCSC(=O)C(C)(C)C)Oc3ccc(CC(N)C(=O)O)cc3)O2)c(=O)[nH]c1=O.Cl` (stereo partly specified), the IC50 in the data set with CCRF-CEM [1] was found to be 29 µM; in the data set on CEM-SS [6], 0.006 µM. For the same compound, the CC50 in the data set on CEM-SS [2] was over 90 µM; in the data set with CCRF-CEM [4] it was 90 µM. The half-life in data set [3] is 86.4 h; in data set [5], 1.4 h.
As for `Cc1cn([C@H]2C[C@H](N=[N+]=[N-])[C@@H](COP(=O)(OCCSC(=O)C(C)(C)C)Oc3ccccc3)O2)c(=O)[nH]c1=O` (stereo partly specified), the IC50 in the data set with CCRF-CEM [1] amounted to 3.5 µM; in the data set with CEM-SS [6], 0.001 µM. Further, the CC50 in the data set with CEM-SS [2] and in the data set on CCRF-CEM [4] was over 10 µM throughout. The half-life is 72 h in data set [3] and 1.2 h in data set [5].
For the compound `Cc1cn([C@H]2C[C@H](N=[N+]=[N-])[C@@H](CO)O2)c(=O)[nH]c1=O` [ZIDOVUDINE], the IC50 in the data set on CCRF-CEM [1] was over 100 µM; in the data set with CEM-SS [6], 0.006 µM. The half-maximal cytotoxic concentration (CC50) with CEM-SS [2] and in the data set with CCRF-CEM [4] was over 100 µM in each case.

Usually IC50 stands for the midpoint of a concentration-inhibition curve. As usually defined, the CC50 is the concentration giving 50% cytotoxicity. A high value points to better tolerance by the cells. As a reminder, the half-life is the time needed for the level to fall by half in the phase considered.
